Assay results taken from the supplement of paper PMC12137928.
Counter-ions that a name gives are not always drawn.

System: HCT116
Settings: 72 h
How it was run: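 Four-parameter Hill fits gave IC50 and maximal efficacy. The data were CellTiter-Glo luminescence readings in HCT116 cells, normalized so that vehicle was 0% and positive control was -100%, with pattern correction afterwards.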

SMILES | IC50 cell viability (ICRF193 0 nM) [µM] | IC50 cell viability (ICRF193 200 nM) [µM]
CCC(=O)O[C@]1(C(=O)SCF)[C@H](C)C[C@H]2[C@@H]3C[C@H](F)C4=CC(=O)C=C[C@]4(C)[C@@]3(F)[C@@H](O)C[C@@]21C [Fluticasone propionate] | > 45.8 | > 45.8
C[N+]1(CCF)[C@@H]2CC[C@H]1C[C@@H](OC(=O)C(O)(c1ccccc1)c1ccccc1)C2 (some centres undefined) [Flutropium bromide] | > 45.8 | > 45.8
COCCCC/C(=N\OCCN)c1ccc(C(F)(F)F)cc1 [Fluvoxamine] | > 45.8 | > 45.8
Nc1nc(=O)c2nc(CNc3ccc(C(=O)N[C@@H](CCC(=O)O)C(=O)O)cc3)cnc2[nH]1 [Folic acid] | > 45.8 | > 45.8
Cc1cn[nH]c1 [Fomepizole] | > 45.8 | > 45.8
CN(CC(=O)N1CCOCC1)Cc1c(Cl)cccc1NC(=O)c1ccccc1 [Fominoben hydrochloride] | > 45.8 | > 45.8
COc1ccc(CC(C)NCC(O)c2ccc(O)c(NC=O)c2)cc1 (centres undefined) [Formoterol hemifumarate] | > 45.8 | > 45.8
O=c1[nH]cnc2c([C@@H]3N[C@H](CO)[C@@H](O)[C@H]3O)c[nH]c12 [Forodesine (hydrochloride)] | > 45.8 | > 45.8
CC(C)CN(C[C@@H](OP(=O)(O)O)[C@H](Cc1ccccc1)NC(=O)O[C@H]1CCOC1)S(=O)(=O)c1ccc(N)cc1 [Fosamprenavir (Calcium Salt)] | > 45.8 | > 45.8
O=C(O)P(=O)(O)O [Foscarnet trisodium] | > 45.8 | > 45.8
CC/C(=C(/CC)c1ccc(OP(=O)(O)O)cc1)c1ccc(OP(=O)(O)O)cc1 [Fosfestrol tetrasodium] | > 45.8 | > 45.8
O=P(O)(O)OC(Cn1cncn1)(Cn1cncn1)c1ccc(F)cc1F [Fosfluconazole] | > 45.8 | > 45.8
O=C1NC(c2ccccc2)(c2ccccc2)C(=O)N1COP(=O)(O)O [Fosphenytoin] | > 45.8 | > 45.8
CCOP(=O)(OCC)C(C)NC(=O)N(CCCl)N=O (centres undefined) [Fotemustine] | > 45.8 | > 45.8
CN[C@@H]1CCc2[nH]c3ccc(C(N)=O)cc3c2C1 [Frovatriptan succinate] | > 45.8 | > 45.8
N[C@@H](CSCCCO)C(=O)O [Fudosteine] | > 45.8 | > 45.8
C[C@]12CC[C@@H]3c4ccc(O)cc4C[C@@H](CCCCCCCCC[S+]([O-])CCCC(F)(F)C(F)(F)F)[C@H]3[C@@H]1CC[C@@H]2O (some centres undefined) [Fulvestrant] | > 45.8 | > 45.8
CO[C@@H]1[C@H](OC(=O)/C=C/C=C/C=C/C=C/C(=O)O)CC[C@]2(CO2)[C@H]1[C@@]1(C)O[C@@H]1CC=C(C)C [Fumagillin] | > 45.8 | > 45.8
O=C1OCCN1/N=C/c1ccc([N+](=O)[O-])o1 [Furazolidone] | > 45.8 | > 45.8
NS(=O)(=O)c1cc(C(=O)O)c(NCc2ccco2)cc1Cl [Furosemide] | > 45.8 | > 45.8
CC(=O)O[C@H]1C[C@@]2(C)[C@@H](C[C@@H](O)[C@H]3[C@@]4(C)CC[C@@H](O)[C@@H](C)[C@@H]4CC[C@@]32C)/C1=C(\CCC=C(C)C)C(=O)O [Fusidic Acid (sodium salt)] | > 45.8 | > 45.8

SMILES | IC50 cell viability (ICRF193 0 nM) [µM] | IC50 cell viability (ICRF193 200 nM) [µM]
CC(OC(=O)NCC1(CC(=O)O)CCCCC1)OC(=O)C(C)C (centres undefined) [GABAPENTIN ENACARBIL] | > 45.8 | > 45.8
CN[C@@H]1[C@@H](O)[C@@H](O[C@@H]2[C@@H](O)[C@H](O[C@H]3O[C@H](CN)CC[C@H]3N)[C@@H](N)C[C@H]2N)OC[C@]1(C)O.CN[C@@H]1[C@@H](O)[C@@H](O[C@@H]2[C@@H](O)[C@H](O[C@H]3O[C@H]([C@@H](C)N)CC[C@H]3N)[C@@H](N)C[C@H]2N)OC[C@]1(C)O.CN[C@@H]1[C@@H](O)[C@@H](O[C@@H]2[C@@H](O)[C@H](O[C@H]3O[C@H]([C@@H](C)NC)CC[C@H]3N)[C@@H](N)C[C@H]2N)OC[C@]1(C)O [GENTAMICIN SULFATE] | > 45.8 | > 45.8
CCCCCCCCCCCC(=O)OCC(O)CO (centres undefined) [GLYCERYL LAURATE] | > 45.8 | > 45.8
CC(C)OC(=O)[C@H](C)N[P@](=O)(CO[C@H](C)Cn1cnc2c(N)ncnc21)Oc1ccccc1 [GS-7340] | > 45.8 | > 45.8
NCC1(CC(=O)O)CCCCC1 [Gabapentin] | > 45.8 | > 45.8
CCOC(=O)c1ccc(OC(=O)CCCCCNC(=N)N)cc1 [Gabexate mesilate] | > 45.8 | > 45.8
COc1ccc2c3c1O[C@H]1C[C@@H](O)C=C[C@@]31CCN(C)C2 [Galanthamine] | > 45.8 | > 45.8
O=C(O)c1cc(O)c(O)c(O)c1 [Gallic acid] | > 45.8 | > 45.8
COc1ccc(CCN(C)CCCC(C#N)(c2cc(OC)c(OC)c(OC)c2)C(C)C)cc1OC (centres undefined) [Gallopamil hydrochloride] | > 45.8 | > 45.8
CCCN1C[C@H](C)[C@@H](O)[C@](C)(O)[C@@H](CC)OC(=O)[C@H](C)[C@@H](O[C@H]2C[C@@](C)(OC)[C@@H](O)[C@H](C)O2)[C@H](C)[C@@H](O[C@@H]2O[C@H](C)C[C@H](N(C)C)[C@H]2O)[C@](C)(O)C[C@H]1C [Gamithromycin] | > 45.8 | > 45.8
CCCCC/C=C\C/C=C\C/C=C\CCCCC(=O)O [Gamolenic acid] | > 45.8 | > 45.8
Nc1nc2c(ncn2COC(CO)CO)c(=O)[nH]1 [Ganciclovir] | > 45.8 | > 45.8
C[C@H]1NCc2cc(-c3ccc4c(=O)c(C(=O)O)cn(C5CC5)c4c3OC(F)F)ccc21 [Garenoxacin mesylate hydrate] | > 45.8 | > 45.8
COc1c(N2CCNC(C)C2)c(F)cc2c(=O)c(C(=O)O)cn(C3CC3)c12 (centres undefined) [Gatifloxacin] | > 45.8 | > 45.8
CC(C)=CCC/C(C)=C/CC/C(C)=C/CCC(=O)OC/C=C(\C)CCC=C(C)C [Gefarnate] | > 45.8 | > 45.8
Cc1ccc(C)c(OCCCC(C)(C)C(=O)O)c1 [Gemfibrozil] | > 45.8 | > 45.8
CO/N=C1\CN(c2nc3c(cc2F)c(=O)c(C(=O)O)cn3C2CC2)CC1CN (centres undefined) [Gemifloxacin mesylate] | > 45.8 | > 45.8
CC(C)=CCC/C(C)=C/CO [Geraniol] | > 45.8 | > 45.8
C#C[C@]1(O)C=C[C@H]2[C@@H]3CCC4=CC(=O)CC[C@@H]4[C@H]3CC[C@@]21CC [Gestodene] | > 45.8 | > 45.8
CC(=O)[C@@]1(O)CC[C@H]2[C@@H]3CCC4=CC(=O)CC[C@@H]4[C@H]3CC[C@@]21C [Gestonorone] | > 45.8 | > 45.8
Oc1cc(O)c(Cl)cn1 [Gimeracil] | > 45.8 | > 45.8
